Consider 40 compounds from ChEMBL document CHEMBL1130666, “Benzimidazole derivatives as arginine mimetics in 1,4-benzodiazepine nonpeptide vitronectin receptor (alpha v beta 3) antagonists” (Bioorg Med Chem Lett, 1998).

Broadly, the pIC50 is the negative decadic logarithm of the IC50, by convention in mol/L. In general, pKi refers to the Ki on a negative log10 scale, so that one unit is a factor of ten.

For experiment [1], the target named is T1, Integrin alpha-V/beta-3 (Homo sapiens, UniProt P05106+P06756). In words: Effect against adhesion of HEK 293 cells transfected with human alpha-v beta-3 to vitronectin coated plates. In kind it is functional, cell-based, HEK293.
Experiment [2] concerns the target T1, Integrin alpha-V/beta-3. The experiment in a line: Binding affinity evaluated against vitronectin receptor (alphaV-beta3) receptor. In kind it is protein-complex assay.
Experiment [3] concerns the target Integrin alpha-IIb/beta-3 (Homo sapiens, UniProt P05106+P08514). In words: Affinity for alphaIIb-beta3 receptor. In kind it is protein-complex assay.

pIC50, pKi: −log10 of the molar value.

Integrin alpha-IIb/beta-3, sequence (P05106 27-788 limits assumed): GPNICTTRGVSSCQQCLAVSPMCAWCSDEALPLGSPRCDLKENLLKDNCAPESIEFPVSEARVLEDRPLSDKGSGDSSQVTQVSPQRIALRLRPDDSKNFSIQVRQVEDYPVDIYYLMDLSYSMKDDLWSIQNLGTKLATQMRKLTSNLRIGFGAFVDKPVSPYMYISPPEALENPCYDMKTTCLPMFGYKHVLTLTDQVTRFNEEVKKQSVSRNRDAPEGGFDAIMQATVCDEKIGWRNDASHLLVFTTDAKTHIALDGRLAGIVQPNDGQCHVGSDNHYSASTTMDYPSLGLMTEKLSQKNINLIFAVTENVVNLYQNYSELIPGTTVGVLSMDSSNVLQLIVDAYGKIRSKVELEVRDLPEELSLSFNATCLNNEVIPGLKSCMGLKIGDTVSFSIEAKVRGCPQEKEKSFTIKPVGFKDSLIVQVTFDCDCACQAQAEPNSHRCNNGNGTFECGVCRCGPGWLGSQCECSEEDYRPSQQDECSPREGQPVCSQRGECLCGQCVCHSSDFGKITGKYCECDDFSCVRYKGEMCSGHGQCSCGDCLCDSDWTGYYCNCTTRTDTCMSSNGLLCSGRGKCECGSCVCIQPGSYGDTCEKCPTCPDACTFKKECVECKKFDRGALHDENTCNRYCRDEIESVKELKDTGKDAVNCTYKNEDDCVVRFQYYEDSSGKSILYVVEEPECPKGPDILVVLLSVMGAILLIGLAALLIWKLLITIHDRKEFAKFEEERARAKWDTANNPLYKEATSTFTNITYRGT
Integrin alpha-IIb/beta-3, sequence (P08514 32-887 limits assumed): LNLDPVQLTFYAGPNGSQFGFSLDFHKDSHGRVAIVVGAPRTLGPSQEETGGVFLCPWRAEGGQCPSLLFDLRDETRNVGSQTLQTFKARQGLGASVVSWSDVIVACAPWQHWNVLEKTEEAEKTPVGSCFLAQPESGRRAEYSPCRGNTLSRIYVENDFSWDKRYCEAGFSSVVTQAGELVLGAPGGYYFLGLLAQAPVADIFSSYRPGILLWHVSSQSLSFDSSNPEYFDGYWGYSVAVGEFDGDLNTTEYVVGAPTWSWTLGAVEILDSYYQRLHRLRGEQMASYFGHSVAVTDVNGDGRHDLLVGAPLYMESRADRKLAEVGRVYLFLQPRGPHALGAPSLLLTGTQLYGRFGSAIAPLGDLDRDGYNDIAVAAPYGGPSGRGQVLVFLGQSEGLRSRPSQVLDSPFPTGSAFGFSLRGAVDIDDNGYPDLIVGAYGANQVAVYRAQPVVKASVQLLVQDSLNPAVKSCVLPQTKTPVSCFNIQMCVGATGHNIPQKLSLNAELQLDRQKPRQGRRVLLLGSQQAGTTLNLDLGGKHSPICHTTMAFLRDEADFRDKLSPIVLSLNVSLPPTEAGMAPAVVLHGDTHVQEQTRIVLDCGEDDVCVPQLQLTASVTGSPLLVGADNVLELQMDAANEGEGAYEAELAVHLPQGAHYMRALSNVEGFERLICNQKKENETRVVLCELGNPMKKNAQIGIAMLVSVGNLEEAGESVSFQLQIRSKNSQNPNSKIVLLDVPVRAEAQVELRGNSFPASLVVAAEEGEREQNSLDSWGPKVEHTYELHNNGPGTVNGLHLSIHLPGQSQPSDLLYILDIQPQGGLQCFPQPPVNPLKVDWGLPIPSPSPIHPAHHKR
Integrin alpha-IIb/beta-3, sequence (P08514 891-1039 limits assumed): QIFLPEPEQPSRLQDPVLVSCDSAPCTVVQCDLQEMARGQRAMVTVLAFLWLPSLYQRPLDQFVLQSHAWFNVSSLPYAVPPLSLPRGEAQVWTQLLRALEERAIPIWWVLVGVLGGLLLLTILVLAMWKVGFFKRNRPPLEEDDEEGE
T1 sequence (P05106 27-788 limits assumed): as the sequence (P05106 27-788 limits assumed) above
T1 sequence (P06756 31-889 limits assumed): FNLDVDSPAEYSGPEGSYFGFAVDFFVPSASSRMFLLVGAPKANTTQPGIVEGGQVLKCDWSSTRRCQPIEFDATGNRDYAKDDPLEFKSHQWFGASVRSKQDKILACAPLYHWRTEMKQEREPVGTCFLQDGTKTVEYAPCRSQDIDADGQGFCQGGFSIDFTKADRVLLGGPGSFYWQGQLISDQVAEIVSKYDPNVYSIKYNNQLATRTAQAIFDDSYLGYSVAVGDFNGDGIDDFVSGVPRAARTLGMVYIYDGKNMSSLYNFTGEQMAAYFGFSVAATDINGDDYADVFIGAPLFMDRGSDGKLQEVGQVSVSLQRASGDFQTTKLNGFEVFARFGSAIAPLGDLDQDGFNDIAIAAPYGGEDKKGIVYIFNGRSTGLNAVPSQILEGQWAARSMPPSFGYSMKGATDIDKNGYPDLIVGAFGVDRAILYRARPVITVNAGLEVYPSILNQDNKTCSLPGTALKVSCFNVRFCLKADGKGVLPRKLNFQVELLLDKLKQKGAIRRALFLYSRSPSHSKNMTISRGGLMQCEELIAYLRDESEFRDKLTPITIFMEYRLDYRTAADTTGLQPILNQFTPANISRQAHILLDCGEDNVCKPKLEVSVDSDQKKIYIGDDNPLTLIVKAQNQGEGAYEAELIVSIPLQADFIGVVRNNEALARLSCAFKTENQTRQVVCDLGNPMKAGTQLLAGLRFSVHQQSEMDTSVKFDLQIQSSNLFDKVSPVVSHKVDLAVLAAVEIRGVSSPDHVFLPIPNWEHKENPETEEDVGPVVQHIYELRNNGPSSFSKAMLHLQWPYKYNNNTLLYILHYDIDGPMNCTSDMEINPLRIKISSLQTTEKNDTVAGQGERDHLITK
T1 sequence (P06756 891-1048 limits assumed): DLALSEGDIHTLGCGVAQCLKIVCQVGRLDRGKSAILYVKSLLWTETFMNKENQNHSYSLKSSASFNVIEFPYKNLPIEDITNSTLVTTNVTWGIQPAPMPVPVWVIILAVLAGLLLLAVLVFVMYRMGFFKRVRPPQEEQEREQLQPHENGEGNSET

Consider `O=C(O)C[C@@H]1Nc2ccc(C(=O)NCc3nc4ccccc4[nH]3)cc2CNC1=O`, for which the pIC50 against Integrin alpha-V/beta-3 [1] was 5.30. The compound also showed a pKi at Integrin alpha-V/beta-3 [2] of 7.52.
For the compound `CN1Cc2cc(C(=O)N(CC#N)Cc3nc4ccccc4[nH]3)ccc2N[C@@H](CC(=O)O)C1=O`, on Integrin alpha-V/beta-3 [1], the negative-log IC50 (pIC50) is 6.09. The same compound gave a negative logarithm of the Ki (pKi) on Integrin alpha-V/beta-3 [2] of 8.40.
For the compound `CN(Cc1nc2c(N)cccc2[nH]1)C(=O)c1ccc2c(c1)CN(C)C(=O)[C@H](CC(=O)O)N2`, the pIC50 against Integrin alpha-V/beta-3 [1] was 6.09. This compound showed a pKi on Integrin alpha-V/beta-3 [2] of 8.26.
Regarding `CN(Cc1nc2c([nH]1)CCCC2)C(=O)c1ccc2c(c1)CN(C)C(=O)[C@H](CC(=O)O)N2`, the pKi was 5.56 in experiment [3] and 8.30 on Integrin alpha-V/beta-3 [2].
`Cc1cccc2[nH]c(CN(C)C(=O)c3ccc4c(c3)CN(C)C(=O)[C@H](CC(=O)O)N4)nc12` showed a pIC50 against Integrin alpha-V/beta-3 [1] of 6.32. This compound showed a pKi on Integrin alpha-V/beta-3 [2] of 8.70.
Take `O=C(O)C[C@@H]1Nc2ccc(C(=O)NCc3nc4ccccc4[nH]3)cc2CN(Cc2ccccc2)C1=O`: on Integrin alpha-V/beta-3 [1], the pIC50 is 5.82. Further, the pKi on Integrin alpha-V/beta-3 [2] is 7.82.
`CN(Cc1nc2ccccc2[nH]1)C(=O)c1ccc2c(c1)CN(CCc1ccccc1)C(=O)[C@H](CC(=O)O)N2` had a pIC50 against Integrin alpha-V/beta-3 [1] of 7.05. This compound had a pKi at Integrin alpha-V/beta-3 [2] of 8.40.
On Integrin alpha-V/beta-3 [2], `COc1ccc(OC)c2[nH]c(CN(C)C(=O)c3ccc4c(c3)CN(C)C(=O)[C@H](CC(=O)O)N4)nc12` had a pKi of 5.89.
At Integrin alpha-V/beta-3 [1], `CN(Cc1nc2ccc(C(F)(F)F)cc2[nH]1)C(=O)c1ccc2c(c1)CN(C)C(=O)[C@H](CC(=O)O)N2` had a pIC50 of 6.00. In addition, at Integrin alpha-V/beta-3 [2], the pKi is 8.07.
For `CN(Cc1nc2cc(F)c(F)cc2[nH]1)C(=O)c1ccc2c(c1)CN(C)C(=O)[C@H](CC(=O)O)N2`, the pIC50 on Integrin alpha-V/beta-3 [1] is 6.27. Besides, the pKi on Integrin alpha-V/beta-3 [2] is 8.60.
The matching figures for `CN1Cc2cc(C(=O)N(Cc3nc4ccccc4[nH]3)Cc3nc4ccccc4[nH]3)ccc2N[C@@H](CC(=O)O)C1=O`: 6.32 and 8.60.
For `CN(Cc1nc2cc3c(cc2[nH]1)OCO3)C(=O)c1ccc2c(c1)CN(C)C(=O)[C@H](CC(=O)O)N2`, the pIC50 at Integrin alpha-V/beta-3 [1] is 6.16. The same compound had a negative logarithm of the Ki (pKi) on Integrin alpha-V/beta-3 [2] of 8.05.
As to `CN1Cc2cc(C(=O)N(Cc3nc4ccccc4[nH]3)C3CCCCC3)ccc2N[C@@H](CC(=O)O)C1=O`, the negative-log Ki (pKi) at Integrin alpha-V/beta-3 [2] is 6.12.
On to `CN(Cc1nc2ccccc2n1C)C(=O)c1ccc2c(c1)CN(C)C(=O)[C@H](CC(=O)O)N2`, for which the pKi in experiment [3] is 4.55; on Integrin alpha-V/beta-3 [2], 7.15.
In the case of `COc1cc2nc(CN(C)C(=O)c3ccc4c(c3)CN(C)C(=O)[C@H](CC(=O)O)N4)[nH]c2cc1OC`, the pKi at Integrin alpha-V/beta-3 [2] was 6.74.
As to `O=C(O)C[C@@H]1Nc2ccc(C(=O)NCc3nc4ccccc4[nH]3)cc2CN(CCc2cccnc2)C1=O`, the pIC50 against Integrin alpha-V/beta-3 [1] is 6.46. In addition, the pKi at Integrin alpha-V/beta-3 [2] was 8.00.
For the compound `CN(Cc1nc2c([N+](=O)[O-])cccc2[nH]1)C(=O)c1ccc2c(c1)CN(C)C(=O)[C@H](CC(=O)O)N2`, on Integrin alpha-V/beta-3 [1], the pIC50 is 5.96. Besides, the pKi on Integrin alpha-V/beta-3 [2] is 7.89.
In turn, `CCCCN(Cc1nc2ccccc2[nH]1)C(=O)c1ccc2c(c1)CN(C)C(=O)[C@H](CC(=O)O)N2` showed a pIC50 on Integrin alpha-V/beta-3 [1] of 6.28. Further, on Integrin alpha-V/beta-3 [2], the pKi is 8.46.
The corresponding values for `CN(Cc1nc2ccccc2[nH]1)C(=O)c1ccc2c(c1)CNC(=O)[C@H](CC(=O)O)N2` are 6.30 and 8.19.
Compound `CN1Cc2cc(C(=O)N(CCc3ccccc3)Cc3nc4ccccc4[nH]3)ccc2N[C@@H](CC(=O)O)C1=O` showed a pIC50 against Integrin alpha-V/beta-3 [1] of 6.55. The pKi on Integrin alpha-V/beta-3 [2] is 8.30.
`CN1Cc2cc(C(=O)NCc3nc4ccccc4[nH]3)ccc2N[C@@H](CC(=O)O)C1=O` showed a negative logarithm of the IC50 (pIC50) against Integrin alpha-V/beta-3 [1] of 5.78.
Consider `COCCN1Cc2cc(C(=O)NCc3nc4ccccc4[nH]3)ccc2N[C@@H](CC(=O)O)C1=O` (racemic), for which the pIC50 at Integrin alpha-V/beta-3 [1] is 5.52. The same compound gave a pKi on Integrin alpha-V/beta-3 [2] of 7.55.
Take `CN(Cc1nc2ccccc2[nH]1)C(=O)c1ccc2c(c1)CN(CCc1ccc3c(c1)OCO3)C(=O)[C@H](CC(=O)O)N2` (racemic): the pIC50 against Integrin alpha-V/beta-3 [1] was 6.60. The compound further showed a pKi on Integrin alpha-V/beta-3 [2] of 8.22.
Consider `O=C(O)C[C@@H]1Nc2ccc(C(=O)NCc3nc4ccccc4[nH]3)cc2CN(CCc2ccc3c(c2)OCO3)C1=O` (racemic), for which, on Integrin alpha-V/beta-3 [1], the negative logarithm of the IC50 (pIC50) was 6.17. The compound also showed a pKi at Integrin alpha-V/beta-3 [2] of 8.19.
`CN(Cc1nc2ccccc2[nH]1)C(=O)c1ccc2c(c1)CN(CCC(C)(C)C)C(=O)[C@H](CC(=O)O)N2` (racemic): on Integrin alpha-V/beta-3 [1], the pIC50 is 6.74. This compound had a pKi on Integrin alpha-V/beta-3 [2] of 8.80.
Compound `CC(C)N1Cc2cc(C(=O)NCc3nc4ccccc4[nH]3)ccc2N[C@@H](CC(=O)O)C1=O` (racemic) had a pIC50 against Integrin alpha-V/beta-3 [1] of 5.29. This compound also gave a pKi at Integrin alpha-V/beta-3 [2] of 7.70.
`CN(Cc1nc2ccc([N+](=O)[O-])cc2[nH]1)C(=O)c1ccc2c(c1)CN(C)C(=O)[C@H](CC(=O)O)N2` (racemic): the pIC50 against Integrin alpha-V/beta-3 [1] is 5.52. Also, on Integrin alpha-V/beta-3 [2], the pKi was 7.85.
In the case of `CN1Cc2cc(C(=O)NCc3ncc[nH]3)ccc2N[C@@H](CC(=O)O)C1=O` (racemic), the values for the pKi (in experiment [3]; on Integrin alpha-V/beta-3 [2]) were 4.33 and 5.54, respectively.
For the compound `CN(Cc1nc2ccccc2o1)C(=O)c1ccc2c(c1)CN(C)C(=O)[C@H](CC(=O)O)N2` (racemic), the pKi was 4.52 in experiment [3] and 5.96 on Integrin alpha-V/beta-3 [2].
For `CN(Cc1nc2cc(C#N)ccc2[nH]1)C(=O)c1ccc2c(c1)CN(C)C(=O)[C@H](CC(=O)O)N2` (racemic), the pIC50 against Integrin alpha-V/beta-3 [1] is 6.16. This compound also showed a pKi on Integrin alpha-V/beta-3 [2] of 7.82.
With `COCCN1Cc2cc(C(=O)N(C)Cc3nc4ccccc4[nH]3)ccc2N[C@@H](CC(=O)O)C1=O` (racemic), the pIC50 against Integrin alpha-V/beta-3 [1] is 6.47. Besides, the pKi at Integrin alpha-V/beta-3 [2] was 8.52.
In the case of `O=C(O)C[C@@H]1Nc2ccc(C(=O)NCc3nc4ccccc4[nH]3)cc2CN(CC(=O)O)C1=O` (racemic), the pIC50 on Integrin alpha-V/beta-3 [1] was 5.35. On Integrin alpha-V/beta-3 [2], this compound showed a pKi of 7.57.
In the case of `CN(Cc1nc2ccc(N)cc2[nH]1)C(=O)c1ccc2c(c1)CN(C)C(=O)[C@H](CC(=O)O)N2` (racemic), the pIC50 at Integrin alpha-V/beta-3 [1] is 6.05. The same compound had a pKi on Integrin alpha-V/beta-3 [2] of 7.72.
The matching figures for `O=C(O)C[C@@H]1Nc2ccc(C(=O)NCc3nc4ccccc4[nH]3)cc2CN(CCc2ccccc2)C1=O` (racemic): 6.12 and 8.05.
As for `CN(Cc1nc2ccccc2s1)C(=O)c1ccc2c(c1)CN(C)C(=O)[C@H](CC(=O)O)N2` (racemic), the pKi in experiment [3] was 4.54; on Integrin alpha-V/beta-3 [2], 6.32.
With `CN1Cc2cc(C(=O)NCc3cc4ccccc4[nH]3)ccc2N[C@@H](CC(=O)O)C1=O` (racemic), the pKi in experiment [3] was less than 4.30; at Integrin alpha-V/beta-3 [2], 6.96.
As for `CN(Cc1nc2cc(Cl)ccc2[nH]1)C(=O)c1ccc2c(c1)CN(C)C(=O)[C@H](CC(=O)O)N2` (racemic), the pIC50 at Integrin alpha-V/beta-3 [1] is 6.05. The compound also gave a pKi at Integrin alpha-V/beta-3 [2] of 7.96.
The corresponding values for `CN(Cc1nc2ccccc2[nH]1)C(=O)c1ccc2c(c1)CN(Cc1ccccc1)C(=O)[C@H](CC(=O)O)N2` (racemic) are 6.29 and 8.72.
With `CC(C)(C)CCN1Cc2cc(C(=O)NCc3nc4ccccc4[nH]3)ccc2N[C@@H](CC(=O)O)C1=O` (racemic), the pIC50 against Integrin alpha-V/beta-3 [1] is 5.85. This compound gave a negative-log Ki (pKi) on Integrin alpha-V/beta-3 [2] of 7.82.
As for `CN1Cc2cc(C(=O)NCc3nc4ccccc4[nH]3)ccc2N[C@@H](CC(=O)O)C1=O` (racemic), the pIC50 against Integrin alpha-V/beta-3 [1] was 5.44. The pKi at Integrin alpha-V/beta-3 [2] was 7.62.
